Legend:
FGFR3 signaling = details: cited from earlier work
FGF2-treated RCS cells [1] = experiment: RCS growth arrest assay (MTS); assay type: cell-based, rat; details: for cell toxicity in RCS cells: 50 μM
Description: (§1) RCS cells, which were kindly provided from Dr. Pavel Krejci (Medical Genetics Institute, Cedars-Sinai Medical Center, LA), were cultured in Dulbecco's Modified Eagle's Medium (DMEM, Invitrogen) supplemented with 10% fetal bovine serum (FBS, Thermo Scientific) (Reference 14). For the RCS growth arrest assays, ˜5×10^3 cells were seeded in 96-well culture plates (Falcon) and incubated for 48 hours in the presence of 10 μM of 1,186 FDA-approved chemical compounds (Prestwick Chemical) and 5 ng/ml of FGF2 (R&D Systems). Cell proliferation was quantified by MTS assay (Cell 96 AQueus One Solution Cell Proliferation Assay, Promega) according to the manufacturer's instructions.

FGF2-treated RCS cells [2] = experiment: Alcian blue staining of FGF2-treated RCS cells; assay type: cell-based, rat; details: 5 ng/ml FGF2, 72 hours; meclizine 10 μM or 20 μM, CNP 0.2 μM
Description: For Alcian blue staining, growing RCS cells in 12-well plates were added with 5 ng/ml FGF2 and also with either 10 μM meclizine or 0.2 μM CNP (Calbiochem). After 72 hours, cells were fixed with methanol for 30 minutes at −20° C., and stained overnight with 0.5% Alcian Blue 8 GX (Sigma) in 1 N HCl. For quantitative analyses, Alcian blue-stained cells were lysed in 200 μl of 6 M guanidine HCl for 6 hours at room temperature (Reference 28). The optical density of the extracted dye was measured at 610 nm using PowerScan 4 (DS Pharma Biomedical).

[3] = system: Mmp10, Mmp13, and Adamts1 mRNA; experiment: Real-time RT-PCR of matrix proteinases in FGF2-treated RCS cells; assay type: cell-based, rat; details: FGF2 four hours; 20 μM meclizine or 0.2 μM CNP
Description: Total RNA was isolated from FGF2-treated RCS cells in the presence of 20 μM of meclizine or 0.2 μM of CNP using Trizol. The first strand cDNA was synthesized with ReverTra Ace (Toyobo). We quantified mRNA expression of matrix proteinases (Mmp10, Mmp13, and Adamts1) using LightCycler 480 Real-Time PCR (Roche) and SYBR Green (Takara). The mRNA levels were normalized for that of Gapdh.

[4] = system: HCS-2/8 cells expressing FGFR3-K650E (TD); experiment: Growth assay of HCS-2/8 cells expressing FGFR3-K650E; assay type: cell-based, human; details: for integrated intensities of Venus signals: K650E-expressing HCS-2/8, 72 hours
Text: (§2) The pRK7-FGFR3-WT, -K650E, and -K650M vectors expressing wild-type and mutant FGFR3 (Reference 29) were kindly provided by Dr. Pavel Krejci (Medical Genetics Institute, Cedars-Sinai Medical Center, LA). The pRK7-FGFR3-G380R was constructed by the QuikChange site-directed mutagenesis kit (Stratagene). The wild-type and mutant FGFR3 cDNAs were excised from pRK7-FGFR3 vectors by double digestion with HindIII and BamHI. The fragments were cloned into the lentivirus vector, CSII-CMV-MCS-IRES2-Venus using the NheI and BamHI sites. CSII-CMV-MCS-IRES2-Venus was kindly provided by Dr. Hiroyuki Miyoshi (Riken BioResource Center, Tsukuba, Japan.). The HindIII site of the insert and the NheI site of the vector were blunted using Quick Blunting Kit (New England Biolabs) before ligation. HEK293 cells were plated in 150-mm dishes the day before transfection. We introduced the pLP1, pLP2, pLP/VSVG plasmids (ViraPower Packaging Mix, Invitrogen), and the CSII-CMV-MCS-IRES2-Venus vector into HEK293 cells with Lipofectamine 2000 (Invitrogen) according to the manufacturer's protocols. At 48 hours after transfection, we filtered the media containing the virus particles using the Millex-HV 0.45 μm PVDF filters (Millex) and purified lentivirus using two steps of ultracentrifugation (Beckman Coulter). The lentivirus was added to the medium of HCS-2/8 or ATDC5 cells. After 48 hours, we confirmed that more than 90% of cells were positive for Venus signals.
HCS-2/8 (Reference 31) cells were seeded in 96-well tissue culture plates. HCS-2/8 cells were then infected with lentivirus expressing either FGFR3-WT, -K650E, or -K650M. After 48 hours, the numbers of cells were estimated by MTS assay. In addition, ˜1×10^5 HCS-2/8 cells in a 12-well tissue plate were introduced with lentivirus expressing FGFR3-K650E. After 72 hours, the fluorescence intensity of the Venus protein was quantified by the ArrayScan VTI HCS Reader (Thermo Scientific).

[5] = system: HCS-2/8 cells expressing FGFR3-K650M (SADDAN); experiment: Growth assay of HCS-2/8 cells expressing FGFR3-K650M; assay type: cell-based, human; details: 20 μM
Text: as §2, with “At 48 hours after transfection, we filtered the media containing the virus particles using the Millex-HV 0.45 μm PVDF filters (Millex) and purified lentivirus using two steps of ultracentrifugation (Beckman Coulter). The lentivirus was added to the medium of HCS-2/8 or ATDC5 cells. After 48 hours, we confirmed that more than 90% of cells were positive for Venus signals.” left out
HCS-2/8 (Reference 31) cells were seeded in 96-well tissue culture plates. […] After 72 hours, the fluorescence intensity of the Venus protein was quantified by the ArrayScan VTI HCS Reader (Thermo Scientific).

[6] = system: ATDC5 cells expressing FGFR3-G380R (ACH); experiment: Micromass culture of ATDC5 cells expressing FGFR3-G380R; assay type: cell-based, mouse; details: six days, 20 μM meclizine
embryonic tibiae = experiment: Bone explant culture of embryonic tibiae; parameters: species or system mouse; details: for longitudinal length of embryonic tibiae with FGF2: FGF2 100 ng/ml, day 6, meclizine 20 μM, CNP 0.2 μM
Description: For bone explant culture, tibiae were dissected under the microscope from wild-type mouse embryos on E16.5, placed in 96-well plates, and cultured in α-minimal essential medium (Invitrogen) supplemented with 0.2% bovine serum albumin, 1 mM β-glycerophosphate, and 50 μg/ml ascorbic acid. Embryonic tibiae were further treated with 100 ng/ml FGF2 in the presence or absence of 20 μM meclizine or 0.2 μM CNP for 6 days, then fixed in 10% formaldehyde in phosphate-buffered saline, demineralized with 0.5 M EDTA, and embedded in paraffin. Sections were stained with hematoxylin-eosin and Alcian blue. Images were taken with the SZ61 microscope (Olympus) equipped with the XZ-1 digital camera (Olympus). The longitudinal length of bone, which was defined as the length between proximal and distal articular cartilage, was measured using ImageJ (NIH).

ERK1/2 phosphorylation = experiment: Western blotting of ERK phosphorylation in FGF2-treated RCS cells; assay type: cell-based, rat; details: 20 μM pretreatment 30 min, 5 ng/ml FGF2 5 min
Description: (§3) RCS cells were treated with 20 μM meclizine for 30 min before adding 5 ng/ml FGF2 (“Vehicle” is no treatment group). After 5 min, cells were lysed in the ice-cold RIPA Lysis Buffer (Santa Cruz) supplemented with proteinase inhibitors. Whole cell lysates were separated on SDS-PAGE and transferred to a nitrocellulose membrane. The phosphorylation levels of molecules in the MAPK pathway were determined by Western blotting using the following antibodies: ERK1/2, phospho-ERK1/2(Thr^202/Tyr^204), MEK1/2, and phospho-MEK1/2(Ser^217/221) (Cell Signaling).

MEK1/2 phosphorylation = experiment: Western blotting of MEK phosphorylation in FGF2-treated RCS cells; assay type: cell-based, rat; details: 20 μM pretreatment 30 min, 5 ng/ml FGF2 5 min
Description: as §3

[7] = system: RCS cells expressing caERK; experiment: MTS growth assay of RCS cells expressing constitutively active ERK; assay type: cell-based, rat
Description: as §1
(§4) Clones that express constitutively active mutants in the MAPK/ERK pathway, pcDNA4Myc-ERK2(PD), pcDNA3HA-MEK1(DD), and pcDNA3Flag-C-rafΔN (Reference 30), were kindly provided by Dr. Mutsuhiro Takekawa (Medical Science Institute, Tokyo University, Japan). The inserts were digested with BamHI and XhoI, and were cloned into the CSII-CMV-MCS-IRES2-Venus at the BamHI sites after blunting all digested ends. Lentivirus particles were generated as described above and were applied to RCS cells.

[8] = system: RCS cells expressing caMEK; experiment: MTS growth assay of RCS cells expressing constitutively active MEK; assay type: cell-based, rat
Description: as §1, §4

[9] = system: RCS cells expressing caRAF; experiment: MTS growth assay of RCS cells expressing constitutively active RAF; assay type: cell-based, rat
Description: as §1, §4

normal mouse [10] = experiment: Internal administration to normal pregnant mouse, neonatal mouse evaluated; assay type: in vivo; details: in feed to pregnant mouse from day 14 of pregnancy, day 5 after birth
Description: (§5) Meclizine was internally administered to a normal pregnant mouse from day 14 of pregnancy (2 mg of meclizine is contained in 5 g of feed), and the body length and extremity length of the neonatal mouse on day 5 after birth were evaluated. On the other hand, meclizine was internally administered to a normal mouse from week 2 after birth, and the mouse was evaluated in the same manner on week 5.

normal mouse [11] = experiment: Internal administration to normal mouse from week 2 after birth; assay type: in vivo; details: administered from week 2 after birth, evaluated week 5
Description: as §5

[12] = system: ischemic injury in the brain and heart; details: cited from earlier work
Fgfr3^Y367C/+ mice = details: subcutaneous administration; cited from earlier work
[13] = in vivo; cited from earlier work
Fgfr3^ach mice = details: continuous intravenous infusion; cited from earlier work

O=C(Nc1cc(C(=O)Nc2ccc(S(=O)(=O)O)cc2S(=O)(=O)O)cc(C(=O)Nc2ccc(S(=O)(=O)O)cc2S(=O)(=O)O)c1)Nc1cc(C(=O)Nc2ccc(S(=O)(=O)O)cc2S(=O)(=O)O)cc(C(=O)Nc2ccc(S(=O)(=O)O)cc2S(=O)(=O)O)c1 [NF449]
FGFR3 signaling in RCS chondrocytes (FGFR3 signaling): inhibits FGFR3 signaling

Cc1cccc(CN2CCN(C(c3ccccc3)c3ccc(Cl)cc3)CC2)c1 (stereo not shown) [meclizine, 1-[(4-chlorophenyl)phenylmethyl]-4-[(3-methylphenyl)methyl]piperazine]
RCS proliferation, concentration dependence (FGF2-treated RCS cells [1]; 0, 1, 2, 5, 10, 20, and 50 μM, 5 ng/ml FGF2, 48 hours, MTS assay): dose-dependent increases
increase in RCS proliferation (FGF2-treated RCS cells [1]; 10 μM compound, 5 ng/ml FGF2, 48 hours, MTS assay): ≥ 1.4 fold
cell toxicity in RCS cells (FGF2-treated RCS cells [1]): cell toxicity was evident
cell toxicity in RCS cells (FGF2-treated RCS cells [1]; listed as Meclizine): slight toxicity
Alcian blue staining and chondrocyte-like cell shape (FGF2-treated RCS cells [2]): restored
expressions of Mmp10, Mmp13, and Adamts1 [3]: significantly suppressed
cellular toxicity in K650E-expressing HCS-2/8 ([4]; 20 μM): without apparent cellular toxicity
growth arrest of K650E-expressing HCS-2/8 ([4]; 20 μM, 48 hours, MTS assay): partially but significantly rescued the growth arrest
integrated intensities of Venus signals [4]: significantly increased
cellular toxicity in K650M-expressing HCS-2/8 [5]: without apparent cellular toxicity
growth arrest of K650M-expressing HCS-2/8 ([5]; 48 hours, MTS assay): partially but significantly rescued the growth arrest
levels of glycosaminoglycans (Alcian blue, 610 nm absorbance) [6]: significantly increased the levels of glycosaminoglycans
longitudinal length of embryonic tibiae with FGF2 (embryonic tibiae): significantly attenuated FGF2-mediated growth inhibition
length of tibia without FGF2 treatment (embryonic tibiae; without FGF2, day 6, 20 μM): increased the length of tibia
FGF2-mediated ERK1/2 phosphorylation (ERK1/2 phosphorylation): attenuated
MEK1/2 phosphorylation (MEK1/2 phosphorylation): remained unchanged
caERK-mediated growth inhibition [7]: had no effect
caMEK-mediated growth inhibition [8]: rescued
caRAF-mediated growth inhibition [9]: rescued
body length of neonatal mouse (normal mouse [10]): increase
length of superior and inferior limbs of neonatal mouse (normal mouse [10]): increase
body length (normal mouse [11]): increase
tail length (normal mouse [11]): increase
cytoprotective activity against ischemic injury [12]: cytoprotective activities

BMN111: CNP analog with extended plasma half-life (PGQEHPNARKYKGANKKGLSKGCFGLKLDRIGSMSGLGC; chains of the INN, looked up)
bone growth in Fgfr3^Y367C/+ mice (Fgfr3^Y367C/+ mice): significant recovery of bone growth
plasma half-life [13]: extended

CNP: C-type natriuretic peptide, potent antagonist of FGFR3 signaling, used as positive control
Alcian blue staining and chondrocyte-like cell shape (FGF2-treated RCS cells [2]): approximated that of FGF2-negative cells
expressions of Mmp10, Mmp13, and Adamts1 [3]: significantly suppressed
integrated intensities of Venus signals [4]: increased the integrated Venus signal intensities
levels of glycosaminoglycans (Alcian blue, 610 nm absorbance) [6]: increased the Alcian blue staining
longitudinal length of embryonic tibiae with FGF2 (embryonic tibiae): significantly attenuated FGF2-mediated growth inhibition
dwarfism of Fgfr3^ach mice (Fgfr3^ach mice): successfully normalized the dwarfism
half-life [13]: very short

Reference: US20150216860A1, “THERAPEUTIC AGENT FOR SYSTEMIC BONE DISEASE AND USE THEREOF” (NATIONAL UNIVERSITY CORPORATION NAGOYA INIVERSITY, priority 2013, published 2015)
